The text below walks through data of patent US12053480B2, “Methods and pharmaceutical compositions for treating peripheral demyelinating diseases” (INSERM (INSTITUT NATIONAL DE LA SANTE ET DE LA RECHERCHE …, priority 2015, dated 2024).

For one experiment, the target named is T1, VDAC1 (Mus musculus, UniProt Q60932).
T1 construct: strongly expressed in mSC mitochondria; from tissue; host or cells: myelinating Schwann cells (mSC) of the sciatic nerve of living mice (wild type; db/db and +/db in A10)
In words: Fluorescent probe imaging of mSC mitochondria in diabetic db/db mice, basal conditions. Format: in vivo. As to the method:
Mice were anesthetized with isoflurane inhalation and placed under a Stemi2000 microscope (Zeiss). Incision area was shaved and cleaned using betadine solution. After incision, the gluteus superficialis and biceps femoris muscles were separated to reveal the cavity traversed by the sciatic nerve. The nerve was lift out using spatula and a thin glass needle filled with viral solution (8 μl) was introduced into the nerve with a micromanipulator. This solution was injected over 30 min with short pressure pulses using a Picospritzer III (Parker Hannifin) coupled to a pulse generator. After injection, the nerve was replaced into the cavity, the muscles were readjusted, and the wound was closed using clips (for further details see Gonzalez et al., 2014^3).
TRO19622 drug (Tocris bioscience, Ref. 2906) was diluted in ethanol to 20 mM and then, the solution was diluted in sterile PBS to 20 μM. TRO19622 treatments were realized by 3 mg/kg intraperitoneal (IP) injections of 20 mM solution or by intra sciatic nerve injections of 2 μl of drug solution 2 μM using a Hamilton syringe or a glass needle in sterile conditions 30 minutes before multiphoton image acquisitions or immunohistochemistry and demyelination studies respectively. […] All drug concentrations were previously evaluated by Bordet et al, 2007^5; Goldin et al, 2008^6; Sharov et al, 2007^7. […]

In a further experiment the test system is diabetic (db/db) mice. Description: Sciatic nerve myelin morphometry (toluidine blue, TEM) in diabetic mice. It is filed as in vivo, mouse. The note with it: diabetic mice treated daily for one month. Here is the method:
Sciatic nerves of 20 and 28 weeks old diabetic mice or 16 and 24 weeks old CMT1A rats treated with TRO19622 drug or PBS were fixed for 20 min in situ with 4% PFA and 2.5% glutaraldehyde, in 0.1 M phosphate buffer (pH7.3). Then nerves were removed and postfixed overnight in the same buffer.
After washing 30 min in 0.2M PBS phosphate buffer, the nerves were incubated with 2% osmic acid in 0.1M phosphate buffer for 90 minutes at room temperature. Then, samples were washed in 0.2M PBS phosphate buffer, dehydrated using ethanol gradient solutions and embedded in epoxy resin. For electron microscopy of sciatic nerves, ultrathin (70 nm) cross-sections were cut and stained with 1% uranylacetate solution and lead-citrate and analyzed using a HITACHI H7100 electron microscope at the ‘Centre des Resources en Imagerie Cellulaire’ (CRIC) (for further details see Cotter et al., 2010^9). […] G-ratio was determined using GRatioCalculator plugin of Image J. At less 200 fibers per animal were analysed.
To go further 16-weeks-old diabetic and control mice were treated daily with vehicle or TRO19622 for one month. One day and two months after drug treatment, myelin was evaluated in the sciatic nerve using toluidine blue staining and transmission electron microscopy (TEM) to measure the g-ratio (axon diameter on total myelinated fiber diameter).

T1 sequence (Q60932 14-296): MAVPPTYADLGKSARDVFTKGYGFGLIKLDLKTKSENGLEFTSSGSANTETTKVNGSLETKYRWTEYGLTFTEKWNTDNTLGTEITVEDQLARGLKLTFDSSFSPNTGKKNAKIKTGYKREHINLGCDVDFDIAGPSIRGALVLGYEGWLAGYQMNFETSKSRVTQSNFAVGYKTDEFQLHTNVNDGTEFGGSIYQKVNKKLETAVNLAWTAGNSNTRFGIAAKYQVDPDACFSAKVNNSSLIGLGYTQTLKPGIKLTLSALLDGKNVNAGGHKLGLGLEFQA

Take `CC(C)CCC[C@@H](C)[C@H]1CC[C@H]2[C@@H]3CCC4=C/C(=N\O)CC[C@]4(C)[C@H]3CC[C@]12C` [TRO19622, (NZ)—N-[(8S,9S,10R,13R,14S,17R)-10,13-dimethyl-17-[(2R)-6-methylheptan-2-yl]-1,2,6,7,8,9,11,12,14,15,16,17-dodecahydrocyclopenta[a]phenanthren-3-ylidene]hydroxylamine]: on VDAC1, the mitochondrial motility result is reported as “increased” and the “mitochondrial pH” value was “significantly reduced”. Further, the “axon number and diameter” value in the experiment on diabetic (db/db) mice is on record as “No differences”. Further, in the experiment on diabetic (db/db) mice (compared to vehicle), the g-ratio result is “significant decrease”.
